# Assay results reported in ChEMBL document CHEMBL3734723, “Synthesis and anticancer activity of 6-heteroarylcoumarins” (2015).
# Experiments:
# Format in all cases: functional
# A549 [1] = test: Growth inhibition of human A549 cells incubated for 48 hrs by sulforhodamine B assay; conditions: A549, 48 h; for CC50: read-out: LC50 (the source's name)
# NCI-H460 [2] = test: Growth inhibition of human NCI-H460 cells incubated for 48 hrs by sulforhodamine B assay; conditions: NCI-H460, 48 h; for CC50: read-out: LC50 (the source's name)
# NCI-H522 [3] = test: Growth inhibition of human NCI-H522 cells incubated for 48 hrs by sulforhodamine B assay; conditions: NCI-H522, 48 h; for CC50: read-out: LC50 (the source's name)
# [4] = Growth inhibition of human HCC2998 cells incubated for 48 hrs by sulforhodamine B assay; conditions: HCC 2998, 48 h; for CC50: read-out: LC50 (the source's name)
# [5] = Growth inhibition of human HCT116 cells incubated for 48 hrs by sulforhodamine B assay; conditions: HCT-116, 48 h; for CC50: read-out: LC50 (the source's name)
# [6] = Growth inhibition of human HCT15 cells incubated for 48 hrs by sulforhodamine B assay; conditions: HCT-15, 48 h; for CC50: read-out: LC50 (the source's name)
# U-251 = test: Growth inhibition of human U251 cells incubated for 48 hrs by sulforhodamine B assay; conditions: U-251, 48 h; for CC50: read-out: LC50 (the source's name)
# [7] = Growth inhibition of human LOXIMVI cells incubated for 48 hrs by sulforhodamine B assay; conditions: LOX IMVI; for CC50: read-out: LC50 (the source's name)
# [8] = Growth inhibition of human UACC62 cells incubated for 48 hrs by sulforhodamine B assay; conditions: UACC-62, 48 h; for CC50: read-out: LC50 (the source's name)
# [9] = Growth inhibition of human IGROV1 cells incubated for 48 hrs by sulforhodamine B assay; conditions: IGROV-1, 48 h; for CC50: read-out: LC50 (the source's name)
# [10] = Growth inhibition of human OVCAR8 cells incubated for 48 hrs by sulforhodamine B assay; conditions: OVCAR-8, 48 h; for CC50: read-out: LC50 (the source's name)
# [11] = Growth inhibition of human SKOV3 cells incubated for 48 hrs by sulforhodamine B assay; conditions: SK-OV-3, 48 h; for CC50: read-out: LC50 (the source's name)
# 786-0 [12] = test: Growth inhibition of human 786-0 cells incubated for 48 hrs by sulforhodamine B assay; conditions: 786-0, 48 h; for CC50: read-out: LC50 (the source's name)
# ACHN = test: Growth inhibition of human ACHN cells incubated for 48 hrs by sulforhodamine B assay; conditions: for CC50: read-out: LC50 (the source's name)
# [13] = Growth inhibition of human RXF393 cells incubated for 48 hrs by sulforhodamine B assay; conditions: RXF 393, 48 h; for CC50: read-out: LC50 (the source's name)
# [14] = Growth inhibition of human leukemia cells after 48 hrs by sulforhodamine B assay; conditions: Leukemia cell; for CC50: read-out: LC50 (the source's name)
# [15] = Growth inhibition of human colon cancer cells after 48 hrs by sulforhodamine B assay; conditions: Cancer cell lines; for CC50: read-out: LC50 (the source's name)
# [16] = Growth inhibition of human CNS cancer cells after 48 hrs by sulforhodamine B assay; conditions: Cancer cell lines; for CC50: read-out: LC50 (the source's name)
# [17] = Growth inhibition of human melanoma cells after 48 hrs by sulforhodamine B assay; conditions: Melanoma cell; for CC50: read-out: LC50 (the source's name)
# [18] = Growth inhibition of human renal cancer cells after 48 hrs by sulforhodamine B assay; conditions: Cancer cell lines; for CC50: read-out: LC50 (the source's name)
# K562 = test: Cytotoxicity against human K562 cells assessed as cell growth at 10 uM incubated for 48 hrs by sulforhodamine B assay; conditions: K562, 48 h, read-out: Activity
# NCI-H522 [19] = test: Cytotoxicity against human NCI-H522 cells assessed as cell growth at 10 uM incubated for 48 hrs by sulforhodamine B assay; conditions: NCI-H522, 48 h, read-out: Activity
# [20] = Cytotoxicity against human UACC62 cells assessed as cell growth at 10 uM incubated for 48 hrs by sulforhodamine B assay; conditions: UACC-62, 48 h, read-out: Activity
# SK-MEL-5 = test: Cytotoxicity against human SK-MEL-5 cells assessed as cell growth at 10 uM incubated for 48 hrs by sulforhodamine B assay; conditions: SK-MEL-5, 48 h, read-out: Activity
# CCRF-CEM = test: Cytotoxicity against human CCRF-CEM cells assessed as cell growth at 10 uM incubated for 48 hrs by sulforhodamine B assay; conditions: read-out: Activity
# NCI-H460 [21] = test: Cytotoxicity against human NCI-H460 cells assessed as cell growth at 10 uM incubated for 48 hrs by sulforhodamine B assay; conditions: NCI-H460, 48 h, read-out: Activity
# A549 [22] = test: Cytotoxicity against human A549 cells assessed as cell growth at 10 uM incubated for 48 hrs by sulforhodamine B assay; conditions: A549, 48 h, read-out: Activity
# [23] = Cytotoxicity against human SW620 cells assessed as cell growth at 10 uM incubated for 48 hrs by sulforhodamine B assay; conditions: SW-620, 48 h, read-out: Activity
# [24] = Cytotoxicity against human SF295 cells assessed as cell growth at 10 uM incubated for 48 hrs by sulforhodamine B assay; conditions: SF-295, 48 h, read-out: Activity
# [25] = Cytotoxicity against human SF539 cells assessed as cell growth at 10 uM incubated for 48 hrs by sulforhodamine B assay; conditions: SF-539, 48 h, read-out: Activity
# [26] = Cytotoxicity against human SF268 cells assessed as cell growth at 10 uM incubated for 48 hrs by sulforhodamine B assay; conditions: SF-268, 48 h, read-out: Activity
# [27] = Cytotoxicity against human LOXIMVI cells assessed as cell growth at 10 uM incubated for 48 hrs by sulforhodamine B assay; conditions: LOX IMVI, read-out: Activity
# M14 = test: Cytotoxicity against human M14 cells assessed as cell growth at 10 uM incubated for 48 hrs by sulforhodamine B assay; conditions: M14, 48 h, read-out: Activity
# [28] = Cytotoxicity against human NCI-ADR-RES cells assessed as cell growth at 10 uM incubated for 48 hrs by sulforhodamine B assay; conditions: read-out: Activity
# 786-0 [29] = test: Cytotoxicity against human 786-0 cells assessed as cell growth at 10 uM incubated for 48 hrs by sulforhodamine B assay; conditions: 786-0, 48 h, read-out: Activity
# [30] = Cytotoxicity against human […] cells assessed as cell growth at 10 uM incubated for 48 hrs by sulforhodamine B assay; conditions: read-out: Activity
smiles,measurement,setting,value
Cc1cc(=O)oc2c(C)c(O)c(-c3ccnc(N)n3)cc12,GI50,A549 [1],3.03 µM
same,TGI,A549 [1],> 100 µM
same,CC50,A549 [1],> 100 µM
same,GI50,NCI-H460 [2],2.44 µM
same,TGI,NCI-H460 [2],> 100 µM
same,CC50,NCI-H460 [2],> 100 µM
same,GI50,NCI-H522 [3],20.7 µM
same,TGI,NCI-H522 [3],> 100 µM
same,CC50,NCI-H522 [3],> 100 µM
same,GI50,[4],> 100 µM
same,TGI,[4],> 100 µM
same,CC50,[4],> 100 µM
same,GI50,[5],3.05 µM
same,TGI,[5],> 100 µM
same,CC50,[5],> 100 µM
same,GI50,[6],8.45 µM
same,TGI,[6],> 100 µM
same,CC50,[6],> 100 µM
same,GI50,U-251,8.59 µM
same,TGI,U-251,> 100 µM
same,CC50,U-251,> 100 µM
same,GI50,[7],4.44 µM
same,TGI,[7],> 100 µM
same,CC50,[7],> 100 µM
same,GI50,[8],17.2 µM
same,TGI,[8],> 100 µM
same,CC50,[8],> 100 µM
same,GI50,[9],15.8 µM
same,TGI,[9],> 100 µM
same,CC50,[9],> 100 µM
same,GI50,[10],6.95 µM
same,TGI,[10],> 100 µM
same,CC50,[10],> 100 µM
same,GI50,[11],28.3 µM
same,TGI,[11],> 100 µM
same,CC50,[11],> 100 µM
same,GI50,786-0 [12],29.8 µM
same,TGI,786-0 [12],> 100 µM
same,CC50,786-0 [12],> 100 µM
same,GI50,ACHN,2.39 µM
same,TGI,ACHN,> 100 µM
same,CC50,ACHN,> 100 µM
same,GI50,[13],4.7 µM
same,TGI,[13],59.9 µM
same,CC50,[13],> 100 µM
same,GI50,[14],31.9 µM
same,TGI,[14],> 100 µM
same,CC50,[14],> 100 µM
same,GI50,[15],32.7 µM
same,TGI,[15],> 100 µM
same,CC50,[15],> 100 µM
same,GI50,[16],13.1 µM
same,TGI,[16],> 100 µM
same,CC50,[16],> 100 µM
same,GI50,[17],68.1 µM
same,TGI,[17],> 100 µM
same,CC50,[17],> 100 µM
same,GI50,[18],10.6 µM
same,TGI,[18],> 100 µM
same,CC50,[18],> 100 µM
same,growth at 10 µM,K562,46.5%
same,growth at 10 µM,NCI-H522 [19],47%
same,growth at 10 µM,[20],51.5%
same,growth at 10 µM,SK-MEL-5,38.5%
same,growth at 10 µM,CCRF-CEM,-36.8%
same,growth at 10 µM,NCI-H460 [21],19.8%
same,growth at 10 µM,A549 [22],39.5%
same,growth at 10 µM,[23],38.4%
same,growth at 10 µM,[24],28.7%
same,growth at 10 µM,[25],60.7%
same,growth at 10 µM,[26],62.6%
same,growth at 10 µM,[27],27.2%
same,growth at 10 µM,M14,68.6%
same,growth at 10 µM,[28],57.1%
same,growth at 10 µM,786-0 [29],62.1%
same,growth at 10 µM,[30],40.4%
Cc1cc(=O)oc2c(C)c(O)c(-c3cc4ccc(F)cc4[nH]3)cc12,GI50,A549 [1],3.82 µM
same,TGI,A549 [1],15 µM
same,CC50,A549 [1],58.4 µM
same,GI50,NCI-H460 [2],2.82 µM
same,TGI,NCI-H460 [2],10.5 µM
same,CC50,NCI-H460 [2],66.6 µM
same,GI50,NCI-H522 [3],2.78 µM
same,TGI,NCI-H522 [3],9.09 µM
same,CC50,NCI-H522 [3],48.9 µM
same,GI50,[4],3.49 µM
same,TGI,[4],13.5 µM
same,CC50,[4],39.9 µM
same,GI50,[5],2.62 µM
same,TGI,[5],9.87 µM
same,CC50,[5],31.5 µM
same,GI50,[6],3.09 µM
same,TGI,[6],13.6 µM
same,CC50,[6],63.1 µM
same,GI50,U-251,3.05 µM
same,TGI,U-251,13.2 µM
same,CC50,U-251,43.4 µM
same,GI50,[7],2.51 µM
same,TGI,[7],10.6 µM
same,CC50,[7],37.3 µM
same,GI50,[8],2.19 µM
same,TGI,[8],13.2 µM
same,CC50,[8],39.4 µM
same,GI50,[9],2.3 µM
same,TGI,[9],13.7 µM
same,CC50,[9],62.8 µM
same,GI50,[10],3.88 µM
same,TGI,[10],24 µM
same,CC50,[10],> 100 µM
same,GI50,[11],2.93 µM
same,TGI,[11],13.1 µM
same,CC50,[11],64.9 µM
same,GI50,786-0 [12],4.1 µM
same,TGI,786-0 [12],14 µM
same,CC50,786-0 [12],42.6 µM
same,GI50,ACHN,2.64 µM
same,TGI,ACHN,10.6 µM
same,CC50,ACHN,74.7 µM
same,GI50,[13],3.91 µM
same,TGI,[13],14.7 µM
same,CC50,[13],42.3 µM
same,GI50,[14],3.08 µM
same,TGI,[14],19.8 µM
same,CC50,[14],> 100 µM
same,GI50,[15],5.38 µM
same,TGI,[15],16.2 µM
same,CC50,[15],48.1 µM
same,GI50,[16],3.89 µM
same,TGI,[16],17.5 µM
same,CC50,[16],72.9 µM
same,GI50,[17],2.64 µM
same,TGI,[17],9.71 µM
same,CC50,[17],30.8 µM
same,GI50,[18],2.94 µM
same,TGI,[18],10.8 µM
same,CC50,[18],43.1 µM
same,growth at 10 µM,K562,26.7%
same,growth at 10 µM,NCI-H522 [19],15%
same,growth at 10 µM,[20],26%
same,growth at 10 µM,SK-MEL-5,8.97%
same,growth at 10 µM,CCRF-CEM,43.1%
same,growth at 10 µM,NCI-H460 [21],28.4%
same,growth at 10 µM,A549 [22],39.3%
same,growth at 10 µM,[23],58.6%
same,growth at 10 µM,[24],33%
same,growth at 10 µM,[25],47.3%
same,growth at 10 µM,[26],48.7%
same,growth at 10 µM,[27],36.4%
same,growth at 10 µM,M14,52.3%
same,growth at 10 µM,[28],20.7%
same,growth at 10 µM,786-0 [29],42.2%
same,growth at 10 µM,[30],41.2%
